We go through 50 compounds from BindingDB's records for patent US20250091994 (Kobe University, 2025).

Structures are written as SMILES.

The target of the test is GTPase HRas [G12V] (Homo sapiens, UniProt P01112, G12V). As to the kind of experiment: In Vitro Ras-Raf Binding Inhibitory Activity Assay. How it is done: The in vitro Ras-Raf binding inhibitory activity of the compound of the present invention was evaluated by an ELISA method described below. GST-c-Raf-1 RBD diluted with a Ras-Raf binding buffer (50 mM Tris-HCl pH7.4, 150 mM NaCl, 5 mM MgCl2, 1 mM EDTA, and 1% Triton-X100) was added to each well of a glutathione-coated 96-well plate (Thermo Fisher Scientific.), and was incubated at 30° C. for 1 hour, to immobilize Raf on the well. The unbound free Raf was eliminated by washing the well with the Ras-Raf binding buffer three times. Subsequently, GTPTS-bound HRasG12V diluted with the Ras-Raf binding buffer and each compound solution (final DMSO concentration: 10%) were applied to each well, and the resulting mixture was then incubated at 30° C. for 1 hour, so that Ras and Raf were allowed to bind to each other. Thereafter, the plate was washed with the Ras-Raf binding buffer twice, and was then subjected to a blocking treatment at room temperature for 20 minutes, using TBS-Tween {10 mM Tris-HCl pH 7.4, 150 mM NaCl, and 0.05% (w/v) Tween-20}-5% (w/v) bovine serum albumin (BSA). After that, an anti-HRas antibody (C-20, Santa Cruz) or an anti-HRas antibody (259, Santa Cruz), which had been 1000 times diluted with TBS-Tween-5% BSA, was added to the reaction mixture, and incubated at room temperature for 1 hours. After the treatment with the primary antibody, the plate was washed with TBS-Tween-5% BSA three times, and a horseradish peroxidase-labeled secondary antibody against rabbit immunoglobulin G (GE Healthcare) of 1000 times diluted with TBS-Tween-5% BSA, was added to the plate, followed by incubation at room temperature for 1 hour. After the treatment with the secondary antibody, the plate was washed with TBS-Tween-5% BSA three times, and a substrate solution (TMB) was then added to the plate, followed by incubation at room temperature for 15 minutes for coloration. Finally, 2 M H2SO4 was added to stop color development (coloration reaction kit: Nacalai Tesque).
Chain of GTPase HRas [G12V] (P01112 whole entry G12V, looked up): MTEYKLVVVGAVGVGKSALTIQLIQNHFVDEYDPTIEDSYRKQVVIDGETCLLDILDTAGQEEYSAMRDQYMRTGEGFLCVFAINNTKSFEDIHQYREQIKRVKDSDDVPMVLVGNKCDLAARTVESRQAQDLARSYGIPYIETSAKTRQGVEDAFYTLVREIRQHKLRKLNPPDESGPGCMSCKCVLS
One may read the IC50 as the concentration that gives 50% inhibition. Low readings indicate higher potency, high ones lower potency. `COC1(COC(=O)N2CCN(C(=O)c3ccc4nc(/C=C5/C(=O)c6ccccc6N5C(C)=O)ccc4c3)CC2)COC1` [US20250091994, Example 120] registered an IC50 of 2200 nM.

`CC(=O)N1C(=Cc2cc(-c3ccc(-c4ccccc4)cc3)c3cc(C(=O)N4CCN(C5COC5)CC4)ccc3n2)C(=O)c2ccccc21` [US20250091994, Example 162]: the IC50 came out at 2400 nM.

`COc1cc(/C=C2/C(=O)c3ccccc3N2C(C)=O)ccc1OCC(=O)N1CCCC1` [US20250091994, Example 14] displayed an IC50 of 5700 nM.

For `CC(=O)N1C(=Cc2cc(-c3ccc(Oc4ccccc4)cc3)c3cc(C(=O)N4CCOCC4)ccc3n2)C(=O)c2ccccc21` [US20250091994, Example 92], the IC50 was 2800 nM.

`CC(=O)NCc1cccc2c1C(=O)/C(=C/c1ccc3cc(C(=O)N4CCOCC4)ccc3n1)N2C(C)=O` [US20250091994, Example 106] came in with an IC50 of 4100 nM.

Turning to `CC(=O)N1/C(=C\c2ccc3cc(C(=O)N4CC(C)OC(C)C4)ccc3n2)C(=O)c2ccccc21` (stereo not given) [US20250091994, Example 44], the IC50 is 960 nM.

For `CC(=O)N1C(=Cc2ccc3ccc(C(=O)N4CCOCC4)cc3n2)C(=O)c2ccccc21` [US20250091994, Example 62], the IC50 came to 5600 nM.

Compound `CC(=O)N1C(=Cc2ccc3cc(C(=O)N4CCNCC4)ccc3n2)C(=O)c2ccccc21` [US20250091994, Example 139] gave an IC50 of 6000 nM. The IC50 values of the last two compounds are within 1.5-fold of each other.

The compound `CC(=O)N1/C(=C\c2ccc3c(-c4cnn(C)c4)c(C(=O)N4CCOCC4)ccc3n2)C(=O)c2ccccc21` [US20250091994, Example 199] had an IC50 of 2100 nM.

The compound `CC(=O)N1/C(=C/c2nc3ccc(C(=O)N4CCOCC4)cc3s2)C(=O)c2ccccc21` [US20250091994, Example 58] came in with an IC50 of 700 nM.

Take `CC(=O)N1C(=Cc2cc(-c3ccc4c(c3)CCN(C)C4)c3cc(C(=O)N4CCOCC4)ccc3n2)C(=O)c2ccccc21` [US20250091994, Example 173]: the IC50 was 400 nM.

With `CC(=O)N1C(=Cc2ccc3cc(C(=O)N4CCOCC4)ccc3n2)C(=O)c2ccccc21` [US20250091994, Example 28], the half-maximal inhibitory concentration (IC50) was 880 nM.

The compound `CC(=O)N1/C(=C\c2cc(N=[N+]=[N-])c3cc(C(=O)N4CCOCC4)ccc3n2)C(=O)c2ccccc21` [US20250091994, Example 81] showed an IC50 of 1100 nM.

`CC(=O)N1CCc2c(cccc2-c2cc(/C=C3/C(=O)c4ccccc4N3C(C)=O)nc3ccc(C(=O)N4CCOCC4)cc23)C1` [US20250091994, Example 146] yielded an IC50 of 500 nM.

`CC(=O)N1/C(=C/c2cc(-c3cccc(-c4cn[nH]c4)c3)c3cc(C(=O)N4CCOCC4)ccc3n2)C(=O)c2ccccc21` [US20250091994, Example 148] had an IC50 of 300 nM.

For the compound `CC(=O)N1C(=Cc2ccc(OCC(=O)N3CCOCC3)c(-c3ccccc3)c2)C(=O)c2ccccc21` [US20250091994, Example 29], the IC50 came out at 13000 nM. This IC50 is about 43-fold higher than that of the compound before.

The compound `CC(=O)N1/C(=C\c2cc(-c3cccnc3)c3cc(C(=O)N4CCOCC4)ccc3n2)C(=O)c2ccccc21` [US20250091994, Example 85] yielded an IC50 of 580 nM. This IC50 is about 22-fold lower than that of the compound before.

`CC(=O)N1C(=Cc2nc3cc(/C=C/C(=O)N4CCOCC4)ccc3s2)C(=O)c2ccccc21` [US20250091994, Example 109]: the IC50 came to 460 nM.

Consider `CC(=O)N1/C(=C/c2nc3ccc(CNS(C)(=O)=O)cc3s2)C(=O)c2ccccc21` [US20250091994, Example 56], for which the IC50 was 570 nM.

The compound `CC(=O)N1CCc2c(cccc2-c2cc(/C=C3/C(=O)c4ccccc4N3C(C)=O)nc3ccc(CNC4CCOCC4)cc23)C1` [US20250091994, Example 207] displayed an IC50 of 700 nM.

The compound `CC(=O)N1/C(=C\c2cc(-c3cnn(C)c3)c3ccccc3n2)C(=O)c2ccccc21` [US20250091994, Example 177] had an IC50 of 800 nM.

For `CC(=O)N1C(=Cc2cc(C(=O)N3CCN(C4COC4)CC3)c3ccccc3n2)C(=O)c2ccccc21` [US20250091994, Example 204], the IC50 is 1800 nM.

For the compound `CC(=O)N1/C(=C\c2cc(C#N)c3cc(C(=O)N4CCOCC4)ccc3n2)C(=O)c2ccccc21` [US20250091994, Example 86], the IC50 turned out to be 1800 nM.

`COc1cc(C=C2C(=O)c3ccccc3N2C(C)=O)ccc1OCCO` [US20250091994, Example 125] returned an IC50 of 2800 nM.

Take `CC(=O)N1/C(=C\c2cc(-c3cn(C)cn3)c3cc(C(=O)N4CCOCC4)ccc3n2)C(=O)c2ccccc21` [US20250091994, Example 192]: the IC50 came to 800 nM.

As for `CC(=O)N1/C(=C\c2nc3ccc(C(=O)N4CCOCC4)cc3s2)C(=O)c2ccccc21` [US20250091994, Example 59], the IC50 was found to be 4000 nM. This IC50 lies about 5-fold higher than the previous one.

In turn, `CC(=O)N1C(=Cc2cc(-c3cncnc3)c3cc(C(=O)N4CCOCC4)ccc3n2)C(=O)c2ccccc21` [US20250091994, Example 185] registered an IC50 of 1600 nM.

With `CC(=O)N1C(=Cc2cc(-c3ccccc3-c3ccccc3)c3cc(C(=O)NC4CCN(C5COC5)CC4)ccc3n2)C(=O)c2ccccc21` [US20250091994, Example 97], the IC50 stood at 510 nM.

For `CC(=O)N1C(=Cc2ccc3cc(/C=C/C(=O)NC4CCN(C5COC5)CC4)ccc3n2)C(=O)c2ccccc21` [US20250091994, Example 79], the IC50 was 1100 nM.

With `CC(=O)N1/C(=C\c2ccc3cc(C(=O)N4CCC(c5ccccc5)CC4)ccc3n2)C(=O)c2ccccc21` [US20250091994, Example 114], the IC50 came out at 29000 nM.

The compound `CC(=O)N1CCc2cc(-c3c(C(=O)N4CCOCC4)ccc4nc(/C=C5/C(=O)c6ccccc6N5C(C)=O)ccc34)ccc2C1` [US20250091994, Example 200] had an IC50 of 1000 nM.

In turn, `CC(=O)N1/C(=C\c2cc(-c3ccccc3-c3cnn(C)c3)c3cc(C(=O)N4CCOCC4)ccc3n2)C(=O)c2ccccc21` [US20250091994, Example 196] had an IC50 of 800 nM.

With `CCOc1cc(/C=C2/C(=O)c3ccccc3N2C(C)=O)ccc1OCC(N)=O` [US20250091994, Example 13], the IC50 came to 2500 nM.

`CC(=O)N1/C(=C\c2ncc(C(=O)N3CCOCC3)s2)C(=O)c2ccccc21` [US20250091994, Example 38]: the IC50 was determined as 3700 nM.

`COc1cc(/C=C2/C(=O)c3ccccc3N2C(C)=O)ccc1/C=C/C(N)=O` [US20250091994, Example 20]: the concentration for half-maximal inhibition (IC50) worked out at 10000 nM.

As to `CC(=O)N1/C(=C\c2ccc3cc(CCC(=O)N4CCOCC4)ccc3n2)C(=O)c2ccccc21` [US20250091994, Example 45], the IC50 is 1200 nM. Against the preceding compound, the IC50 is about 8.3-fold lower.

`CC(=O)N1CCc2c(cccc2-c2cc(/C=C3/C(=O)c4ccccc4N3C(C)=O)nc3ccccc23)C1` [US20250091994, Example 193]: the IC50 was found to be 700 nM. This IC50 lies about 1.7-fold lower than the previous one.

The compound `CC(=O)N1/C(=C/c2ncc(C(=O)N3CCOCC3)s2)C(=O)c2ccccc21` [US20250091994, Example 68] yielded an IC50 of 2300 nM.

As to `CC(=O)N1CCc2ccc(-c3c(C(=O)N4CCOCC4)ccc4nc(/C=C5/C(=O)c6ccccc6N5C(C)=O)ccc34)cc2C1` [US20250091994, Example 201], the IC50 was determined as 800 nM.

`CC(=O)N1C(=Cc2cc(-c3ccc4c(c3)CCNC4=O)c3ccccc3n2)C(=O)c2ccccc21` [US20250091994, Example 190] showed an IC50 of 900 nM.

`CCCCOc1cc(/C=C2/C(=O)c3ccccc3N2C(C)=O)nc2ccc(C(=O)N3CCOCC3)cc12` [US20250091994, Example 84] had an IC50 of 580 nM.

`CC(=O)N1/C(=C\c2ccc(OCC(=O)N3CCOCC3)cn2)C(=O)c2ccccc21` [US20250091994, Example 22] registered an IC50 of 13000 nM.

Compound `COCC(O)CN1CCN(C(=O)c2ccc3nc(/C=C4/C(=O)c5ccccc5N4C(C)=O)ccc3c2)CC1` (stereo not given) [US20250091994, Example 42] returned an IC50 of 2800 nM.

In turn, `CC(=O)N1C(=Cc2cc(-c3ccccc3-c3cnn(C)c3)c3cc(CNC4CCOCC4)ccc3n2)C(=O)c2ccccc21` [US20250091994, Example 206] showed an IC50 of 2000 nM.

`CC(=O)N1C(=Cc2ccc3cc(OCCO)ccc3n2)C(=O)c2ccccc21` [US20250091994, Example 126] came in with an IC50 of 1400 nM.

`CC(=O)Nc1cc(/C=C2/C(=O)c3ccccc3N2C(C)=O)nc2ccc(C(=O)N3CCOCC3)cc12` [US20250091994, Example 113] showed an IC50 of 680 nM.

`COc1cc(/C=C2/C(=O)c3ccccc3N2C(=O)c2ccccc2)ccc1OCC(N)=O` [US20250091994, Example 49] displayed an IC50 of 13000 nM.

For `CC(=O)N1C(=Cc2ccc3cc(CNC4CCOCC4)ccc3n2)C(=O)c2ccccc21` [US20250091994, Example 131], the IC50 turned out to be 1500 nM.

`COc1cc(/C=C2/C(=O)c3ccccc3N2C(C)=O)ccc1NC(=O)CN1CCOCC1` [US20250091994, Example 27] yielded an IC50 of 2700 nM. This IC50 is about 1.8-fold higher than that of the compound before.

`COc1cc(/C=C2/C(=O)c3ccccc3N2C(C)=O)ccc1OCC(=O)N1CCOCC1` [US20250091994, Example 2]: the IC50 is 7900 nM.
